From ChEMBL document CHEMBL4364352, “Inhibitors of KRAS May Potentially Provide Effective Cancer Treatment” (ACS Med Chem Lett, 2019) come the findings set out here.

The target of assay [1] is T1, GTPase KRas (Homo sapiens, UniProt P01116, G12C). As to the kind of experiment: Inhibition of KRAS G12C mutant in human NCI-H358 cells assessed as increase in accumulation of GDP bound KRAS G12C mutant protein incubated for 6 hrs. In kind it is cell-based.
The target in assay [2] is T1, GTPase KRas. As to the kind of experiment: Inhibition of KRAS G12C mutant in human MIAPaCa2 cells assessed as increase in accumulation of GDP bound KRAS G12C mutant protein incubated for 6 hrs. It counts as cell-based.

Structures are written as SMILES.

T1 sequence (P01116 whole entry G12C): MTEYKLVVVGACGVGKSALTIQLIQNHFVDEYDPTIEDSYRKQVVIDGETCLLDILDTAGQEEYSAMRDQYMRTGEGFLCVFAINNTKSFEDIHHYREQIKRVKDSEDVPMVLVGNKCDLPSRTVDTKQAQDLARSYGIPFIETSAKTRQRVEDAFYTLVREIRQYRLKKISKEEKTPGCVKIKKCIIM

One may read the IC50 as the concentration that inhibits the measured activity by half. For `C=CC(=O)N1CCN(c2nc(OC[C@H]3CCCN3C)nc3c2C[C@@H](C)[C@H](c2c(C)ccc4[nH]ncc24)C3)CC1`, the IC50 at GTPase KRas [1] amounted to 129 nM; at GTPase KRas [2] it was 236 nM. Regarding `C=CC(=O)N1CCN(c2ncnc3c2CCC(c2c(C)ccc4[nH]ncc24)C3)[C@@H](C)C1` (stereo partly drawn), the concentration for half-maximal inhibition (IC50) at GTPase KRas [2] turned out to be 4860 nM.
